Test [1] in a line: Selectivity index, ratio of IC50 for human recombinant CDK5/p25 to porcine brain GSK3alpha/beta.
In test [2] the target is Glycogen synthase kinase-3 (Sus scrofa, UniProt B2LUN4+I6LNT8). The test can be described thus: Inhibition of porcine brain GSK3alpha/beta using GS-1 substrate and ATP.
Test [3] concerns the target Cyclin-dependent kinase 5/CDK5 activator 1 (Homo sapiens, UniProt Q00535). The experiment in a line: Inhibition of human recombinant CDK5/p25 using histone H1 substrate and ATP. It counts as protein-complex assay.
A short description of the next test: cells. The following applies: Homo sapiens, Huh-7, 48 h.
Test [4] concerns PC-3. The test can be described thus: cells. The following applies: Homo sapiens, PC-3, 48 h.
In test [5] the test system is NCI-H727. The experiment in a line: cells. As to conditions: Homo sapiens, NCI-H727, 48 h; call rule not given here.
In test [6] the test system is MDA-MB-231. The test can be described thus: cells. The following applies: Homo sapiens, MDA-MB-231, 48 h.
Test [7] concerns HCT-116. The test can be described thus: cells. The following applies: Homo sapiens, HCT-116, 48 h.
The test system of test [8] is Caco-2. The test can be described thus: cells. As to conditions: Homo sapiens, Caco-2, 48 h.
The test system of test [9] is MDA-MB-231.
The test system of test [10] is PC-3.
The test system of test [11] is Caco-2.
Test [12] relates to NCI-H727.
Test [13] deals with HCT-116.
The target in test [14] is Dual specificity tyrosine-phosphorylation-regulated kinase 1A (Homo sapiens, UniProt Q13627). The experiment in a line: Inhibition of human recombinant GST-tagged DYRK1A expressed in Escherichia coli.

Sequence of Cyclin-dependent kinase 5/CDK5 activator 1 (Q00535 whole entry): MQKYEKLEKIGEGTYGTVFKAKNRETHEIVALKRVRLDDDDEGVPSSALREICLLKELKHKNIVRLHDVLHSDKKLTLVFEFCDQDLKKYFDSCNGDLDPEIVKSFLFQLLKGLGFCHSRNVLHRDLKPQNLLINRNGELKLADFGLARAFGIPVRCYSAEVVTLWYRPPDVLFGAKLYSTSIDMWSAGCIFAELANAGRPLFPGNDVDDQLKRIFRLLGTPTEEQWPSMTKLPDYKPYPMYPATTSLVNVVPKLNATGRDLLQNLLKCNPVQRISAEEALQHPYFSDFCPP
Sequence of Cyclin-dependent kinase 5/CDK5 activator 1 (Q15078 whole entry, further chain): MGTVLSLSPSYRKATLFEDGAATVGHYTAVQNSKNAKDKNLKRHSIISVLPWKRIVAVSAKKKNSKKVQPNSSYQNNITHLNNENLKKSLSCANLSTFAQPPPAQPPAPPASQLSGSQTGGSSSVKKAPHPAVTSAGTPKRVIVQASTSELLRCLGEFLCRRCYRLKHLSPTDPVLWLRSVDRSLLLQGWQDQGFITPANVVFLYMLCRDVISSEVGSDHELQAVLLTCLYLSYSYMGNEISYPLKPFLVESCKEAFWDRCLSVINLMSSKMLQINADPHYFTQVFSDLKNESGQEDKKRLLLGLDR

In the case of `O=C(Nc1ccccn1)Nc1cccc2c1C1CC3(CCN1C2=O)SCCS3` (configuration not stated), the Ratio IC50 in [1] was 7.2. Further, in test [2], the IC50 amounted to 33 nM.
Take `O=C1CCN2C(=O)c3cccc(NC(=O)Nc4ccccn4)c3C2C1` (configuration not stated): the IC50 in [3] came to 1600 nM; in test [2], 230 nM.
As to `O=C(Nc1ccccn1)Nc1cccc2c1[C@@H]1C[C@H](O)CCN1C2=O`, in [3], the concentration for half-maximal inhibition (IC50) worked out at 2100 nM.
For the compound `O=C(Nc1cnccn1)Nc1cccc2c1C1CC3(CCN1C2=O)SCCS3` (configuration not stated), the IC50 in “cells” is 100 nM; in the test on PC-3 [4], 600 nM; in test [2], 44 nM; in the test with NCI-H727 [5], 400 nM; with MDA-MB-231 [6], 150 nM; with HCT-116 [7], 100 nM. Further, in the test on Caco-2 [8], the half-inhibitory concentration (IC50) was determined as 500 nM.
As to `O=C1CCN2C(=O)c3cccc(NC(=O)Nc4cnccn4)c3C2C1` (configuration not stated), the half-maximal inhibitory concentration (IC50) in [3] is 3600 nM; in test [2], 1200 nM.
Consider `Cc1cccc(NC(=O)Nc2cccc3c2C2CC4(CCN2C3=O)OCCO4)n1` (configuration not stated), for which the Ratio IC50 in test [1] is more than 10. In test [2], this compound registered an IC50 of 920 nM.
Take `Cc1cccc(NC(=O)Nc2cccc3c2C2CC4(CCN2C3=O)SCCS4)n1` (configuration not stated): in [1], the Ratio IC50 is more than 5. The IC50 in test [2] turned out to be 2000 nM.
For the compound `Cc1cccc(NC(=O)Nc2cccc3c2[C@@H]2C[C@H](O)CCN2C3=O)n1`, the IC50 result is “Not Active” with MDA-MB-231 [9]; “Not Active” in the test with PC-3 [10]; 1000 nM in [3]; “Not Active” in the test on Caco-2 [11]; “Not Active” with NCI-H727 [12]; “Not Active” with HCT-116 [13].
In the case of `COc1cc(NC(=O)Nc2cccc3c2C2CC4(CCN2C3=O)OCCO4)nc2ccccc12` (configuration not stated), the Ratio IC50 in test [1] is more than 10. The same compound had an IC50 in test [2] of 1000 nM.
With `COc1cc(NC(=O)Nc2cccc3c2C2CC4(CCN2C3=O)SCCS4)nc2ccccc12` (configuration not stated), the Ratio IC50 in test [1] was more than 2.5. In [2], this compound showed an IC50 of 4000 nM.
`Cc1cccnc1NC(=O)Nc1cccc2c1C1CC3(CCN1C2=O)OCCO3` (configuration not stated): the Ratio IC50 in test [1] was found to be 5. This compound returned an IC50 in test [2] of 610 nM.
On the same counts, the results for `Cn1ccc(NC(=O)Nc2cccc3c2C2CC4(CCN2C3=O)SCCS4)n1` (configuration not stated) are more than 5.2 and 1900 nM.
Take `Cc1cnc(NC(=O)Nc2cccc3c2C2CC4(CCN2C3=O)SCCS4)cn1` (configuration not stated): the concentration for half-maximal inhibition (IC50) is 300 nM in “cells”; 400 nM in the test with PC-3 [4]; 55 nM in test [2]; 800 nM with NCI-H727 [5]; 400 nM in the test on MDA-MB-231 [6]; 200 nM in the test on HCT-116 [7]. Also, inhibition in the test with Caco-2 [8] was half-maximal at 500 nM (IC50).
In the case of `O=C(Nc1ccc(Br)cn1)Nc1cccc2c1C1CC3(CCN1C2=O)SCCS3` (configuration not stated), in test [1], the Ratio IC50 was 107. In test [2], this compound yielded an IC50 of 68 nM.
Turning to `CO[C@@H]1CCN2C(=O)c3cccc(NC(=O)Nc4ccccn4)c3[C@@H]2C1` (relative stereo), the figures for the IC50 in test [14], in test [3] and in test [2] were more than 10000 nM, 550 nM and 81 nM, respectively. Also, in test [1], the Ratio IC50 was determined as 6.8.
In the case of `CO[C@@H]1CCN2C(=O)c3cccc(NC(=O)Nc4cnccn4)c3[C@@H]2C1` (relative stereo), the IC50 in test [14] is more than 10000 nM; in test [3], 480 nM; in test [2], 200 nM. In test [1], the Ratio IC50 was found to be 2.4.
As for `O=C(Nc1cnccn1)Nc1cccc2c1[C@@H]1C[C@H](O)CCN1C2=O` (relative stereo), the IC50 was more than 10000 nM in [14]; “Not Active” in the test on MDA-MB-231 [9]; “Not Active” with PC-3 [10]; 84 nM in [3]; 32 nM in test [2]; “Not Active” with Caco-2 [11]. Besides, the IC50 entry with NCI-H727 [12] and with HCT-116 [13] was “Not Active” in each case.
With `CO[C@@H]1CCN2C(=O)c3cccc(NC(=O)Nc4cccc(C)n4)c3[C@@H]2C1` (relative stereo), the IC50 in test [14] is more than 10000 nM; in [3], 4300 nM; in test [2], 320 nM. The Ratio IC50 in test [1] was 13.4.
For `COc1cc(NC(=O)Nc2cccc3c2[C@@H]2C[C@H](OC)CCN2C3=O)nc2ccccc12` (relative stereo), in that order: more than 10000 nM, 8500 nM, 180 nM and 47.5.
As for `COc1cc(NC(=O)Nc2cccc3c2[C@@H]2C[C@H](O)CCN2C3=O)nc2ccccc12` (relative stereo), the half-inhibitory concentration (IC50) in test [14] was more than 10000 nM; in the test with MDA-MB-231 [9], “Not Active”; in the test on PC-3 [10], “Not Active”; in [3] it was 4900 nM; in test [2], 35 nM; in the test on Caco-2 [11] it was “Not Active”. Moreover, the half-inhibitory concentration (IC50) entry with NCI-H727 [12] and in the test with HCT-116 [13] was “Not Active” in each case.
For the compound `CO[C@@H]1CCN2C(=O)c3cccc(NC(=O)Nc4ncccc4C)c3[C@@H]2C1` (relative stereo), the IC50 is more than 10000 nM in test [14] and 1100 nM in test [3].
As for `Cc1cccnc1NC(=O)Nc1cccc2c1[C@@H]1C[C@H](O)CCN1C2=O` (relative stereo), the IC50 in test [3] came out at 630 nM.
Take `CO[C@@H]1CCN2C(=O)c3cccc(NC(=O)Nc4ccn(C)n4)c3[C@@H]2C1` (relative stereo): the results for the IC50 in test [14] and in test [3] were more than 10000 nM and 2300 nM, respectively.
Consider `CO[C@@H]1CCN2C(=O)c3cccc(NC(=O)Nc4cnc(C)cn4)c3[C@@H]2C1` (relative stereo), for which the values for the IC50 in [14], in [3] and in test [2] were more than 10000 nM, 320 nM and 140 nM, respectively. The Ratio IC50 in [1] worked out at 10.
For `CO[C@@H]1CCN2C(=O)c3cccc(NC(=O)Nc4cc(C)ccn4)c3[C@@H]2C1` (relative stereo), the IC50 in the test “cells” was 100 nM; in test [14] it was more than 10000 nM; with PC-3 [4], 400 nM; in [3], 320 nM; in [2], 32 nM; in the test with NCI-H727 [5], 400 nM. Also, the IC50 with MDA-MB-231 [6] is 300 nM; in the test on HCT-116 [7] it was 30 nM; in the test with Caco-2 [8], 500 nM. Besides, the Ratio IC50 in test [1] was 10.

For the origin of these results see ChEMBL document CHEMBL3608270, “Advances in tetrahydropyrido[1,2-a]isoindolone (valmerins) series: Potent glycogen synthase kinase 3 and cyclin dependent kinase 5 inhibitors” (Eur J Med Chem, 2015).
